Earlier results in patent publication US10500240B2, “Use of terminalia chebula extract for treatment of osteoarthritis” (Natreon, Inc., priority 2013, dated 2019).

Key:
[1] = target: maltase; details: reversible and non-competitive inhibitor; read-out: K(i) value, maltase
[2] = system: COX-1
[3] = system: 5-LOX
[4] = system: HepG2 cells; details: with doxorubicin

Ki [1]: 6.6 µM
IC50 [2]: 15 ± 0.288 µM
IC50 [3]: 2.1 ± 0.057 µM
SMILES: O=C(O)CC1C(=O)OC2C3COC(=O)c4cc(O)c(O)c(O)c4-c4c(cc(O)c(O)c4O)C(=O)OC2C(OC(=O)c2cc(O)c(O)c4c2C1C(O)C(=O)O4)C(OC(=O)c1cc(O)c(O)c(O)c1)O3 [Chebulagic acid, beta-1-O-galloyl-2,4-chebuloyl-3,6-(R)-hexahydroxydiphenoyl-D-glucose]
enhanced the cytotoxicity of doxorubicin in HepG2 cells [4]: 20 fold
